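Each compound was tested at five concentrations against cells in 96-well plates for 48 hours. The concentration for 50% growth inhibition is given as GI50.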 Active and inactive are the calls of the source. Cut-off read from the data, not from the text of the source: active = GI50 up to about 1.1 µM and inactive = higher.
Columns and labels:
Assay in all cases: growth of human tumour cells (NCI), 48 h
786-0 = system: 786-0
ACHN = system: ACHN
HCC 2998 = system: HCC 2998
HCT-116 = system: HCT-116
HOP-92 = system: HOP-92
KM12 = system: KM12
LOX IMVI = system: LOX IMVI
M14 = system: M14
MOLT-4 = system: MOLT-4
Malme-3M = system: Malme-3M
NCI-H226 = system: NCI-H226
NCI-H23 = system: NCI-H23
OVCAR-4 = system: OVCAR-4
OVCAR-5 = system: OVCAR-5
SF-295 = system: SF-295
SK-MEL-2 = system: SK-MEL-2
SK-OV-3 = system: SK-OV-3
T47D = system: T47D
UACC-257 = system: UACC-257
UO-31 = system: UO-31

Row | SMILES | GI50 (786-0) | GI50 (ACHN) | GI50 (HCC 2998) | GI50 (HCT-116) | GI50 (HOP-92) | GI50 (KM12) | GI50 (LOX IMVI) | GI50 (M14) | GI50 (MOLT-4) | GI50 (Malme-3M) | GI50 (NCI-H226) | GI50 (NCI-H23) | GI50 (OVCAR-4) | GI50 (OVCAR-5) | GI50 (SF-295) | GI50 (SK-MEL-2) | GI50 (SK-OV-3) | GI50 (T47D) | GI50 (UACC-257) | GI50 (UO-31)
1 | NC(=O)c1nnn(Cc2cc(Cl)c(C(=O)c3ccc(Cl)cc3)c(Cl)c2)c1N [CARBOXYAMIDOTRIAZOLE] | 27.9 µM (inactive) | 9.46 µM (inactive) | > 9.1 µM (inactive) | 11.1 µM (inactive) | 32 µM (inactive) | 10.4 µM (inactive) | 22 µM (inactive) | 19.6 µM (inactive) | 25.9 µM (inactive) | 27.5 µM (inactive) | 33 µM (inactive) | 11.8 µM (inactive) | 22 µM (inactive) | 34.5 µM (inactive) | 9.77 µM (inactive) | 11.1 µM (inactive) | > 38.5 µM (inactive) | 17.7 µM (inactive) | 7.98 µM (inactive) | 25.6 µM (inactive)
2 | COc1ccc(/N=C2\C(=O)C3=C(OC(C)(C)CC3)c3ccccc32)cc1 | 0.971 µM (active) | 0.845 µM (active) | 1.51 µM (inactive) | 0.499 µM (active) | 2.66 µM (inactive) | 0.968 µM (active) | 0.481 µM (active) | 0.769 µM (active) | 2.11 µM (inactive) | 0.791 µM (active) | 6.37 µM (inactive) | 1.31 µM (inactive) | 0.773 µM (active) | 2.82 µM (inactive) | 0.863 µM (active) | 1.16 µM (inactive) | 1.53 µM (inactive) | 0.839 µM (active) | 0.968 µM (active) | 0.755 µM (active)
3 | CCN(CC)/[N+]([O-])=N/OCOC(C)=O | > 100 µM (inactive) | > 100 µM (inactive) | > 100 µM (inactive) | > 100 µM (inactive) | > 100 µM (inactive) | > 100 µM (inactive) | > 100 µM (inactive) | > 100 µM (inactive) | > 100 µM (inactive) | > 100 µM (inactive) | > 100 µM (inactive) | > 100 µM (inactive) | > 100 µM (inactive) | > 100 µM (inactive) | > 100 µM (inactive) | > 100 µM (inactive) | > 100 µM (inactive) | > 100 µM (inactive) | > 100 µM (inactive) | > 100 µM (inactive)
4 | O=C(Oc1ccccc1)c1cc2cc(CCl)ccc2oc1=O | 19.4 µM (inactive) | 8.99 µM (inactive) | 20.5 µM (inactive) | 34.4 µM (inactive) | 14.7 µM (inactive) | 63.4 µM (inactive) | 49.4 µM (inactive) | 13.1 µM (inactive) | 18.8 µM (inactive) | 1.74 µM (inactive) | > 100 µM (inactive) | 15.5 µM (inactive) | 24.8 µM (inactive) | 97.7 µM (inactive) | 32.6 µM (inactive) | 3.17 µM (inactive) | 28.6 µM (inactive) | 15.6 µM (inactive) | 11.6 µM (inactive) | 20.4 µM (inactive)
5 | C#CC(O)/C=C/C(O)CCCC(O)CC#CC(O)C#CC(O)CCCC(O)/C=C/CCCCCC(=O)CCCCCCCCCCCCCC(O)C(O)C#CC(=O)O (stereo not given) | > 50 µM (inactive) | > 50 µM (inactive) | > 50 µM (inactive) | > 50 µM (inactive) | 13.5 µM (inactive) | > 50 µM (inactive) | 12.8 µM (inactive) | > 50 µM (inactive) | 14 µM (inactive) | > 50 µM (inactive) | > 50 µM (inactive) | > 50 µM (inactive) | 9.02 µM (inactive) | > 50 µM (inactive) | > 50 µM (inactive) | 15 µM (inactive) | > 50 µM (inactive) | 10.9 µM (inactive) | > 50 µM (inactive) | > 50 µM (inactive)
6 | COc1ccc(/C(=N/N=c2[nH]c3ccccc3[nH]2)C(=O)O)cc1 | > 100 µM (inactive) | > 100 µM (inactive) | > 100 µM (inactive) | > 100 µM (inactive) | > 100 µM (inactive) | > 100 µM (inactive) | > 100 µM (inactive) | > 100 µM (inactive) | > 100 µM (inactive) | > 100 µM (inactive) | > 100 µM (inactive) | > 100 µM (inactive) | > 100 µM (inactive) | > 100 µM (inactive) | > 100 µM (inactive) | > 100 µM (inactive) | > 100 µM (inactive) | > 100 µM (inactive) | > 100 µM (inactive) | > 100 µM (inactive)
7 | COc1ccc([C@H]2[C@H]3COC(=O)[C@H]3C(C#N)=C3Sc4ccccc4N32)cc1 | 36.7 µM (inactive) | 37.6 µM (inactive) | 44.3 µM (inactive) | 21.7 µM (inactive) | 85.1 µM (inactive) | 27.2 µM (inactive) | 20.2 µM (inactive) | 56.5 µM (inactive) | 13.4 µM (inactive) | 43 µM (inactive) | 33.1 µM (inactive) | 22.8 µM (inactive) | 33.7 µM (inactive) | 80.5 µM (inactive) | 16.3 µM (inactive) | 19.1 µM (inactive) | 39.9 µM (inactive) | 8.89 µM (inactive) | 40.6 µM (inactive) | 23.4 µM (inactive)
8 | CN(Cc1cc(Cl)c(Cl)cc1NC(=O)CN)[C@H]1CCCC[C@@H]1N1CCCC1 | 17.1 µM (inactive) | > 100 µM (inactive) | 17.2 µM (inactive) | 20.8 µM (inactive) | > 100 µM (inactive) | 44.4 µM (inactive) | 15.4 µM (inactive) | 17.1 µM (inactive) | 28.8 µM (inactive) | 18.3 µM (inactive) | 66.4 µM (inactive) | > 100 µM (inactive) | > 100 µM (inactive) | 46.3 µM (inactive) | 18.6 µM (inactive) | 16.2 µM (inactive) | > 100 µM (inactive) | 38.6 µM (inactive) | 16.9 µM (inactive) | 20.7 µM (inactive)
9 | O=C(O)C1C(C(=O)O)C2C(=O)C=CC1N2Cc1ccccc1 (stereo not given) | 2.49 µM (inactive) | 4.18 µM (inactive) | 2.8 µM (inactive) | 3.68 µM (inactive) | 9.55 µM (inactive) | 3.61 µM (inactive) | 3.4 µM (inactive) | 2.25 µM (inactive) | 3.54 µM (inactive) | 3.68 µM (inactive) | 16 µM (inactive) | 2.27 µM (inactive) | 4.32 µM (inactive) | 6.22 µM (inactive) | 11.3 µM (inactive) | 8.51 µM (inactive) | 5.35 µM (inactive) | 3.46 µM (inactive) | 2.62 µM (inactive) | 1.71 µM (inactive)

Source: ChEMBL document CHEMBL1201862, “PubChem BioAssay data set” (2004)
